Results on one compound are retold here after patent publication US20140221301A1, “COMBINATION TREATMENT FOR CANCER” (priority 2011, published 2014).

The structures appear in SMILES notation.

For one data set, the system named is primary human AML cells. The format is in vivo, NOD-SCID mice. As to the method: FIG. 3. Tigecycline has anti-leukemia activity in vivo. (A, B) Human leukemia cells (OCI-AML2) were injected subcutaneously into the flank of SCID mice. Seven days after injection, once tumors were palpable, mice were treated with tigecycline (50 mg/kg or 100 mg/kg twice daily by i.p. injection) or vehicle control (n=10 per group). Fourteen days after injection of cells, mice were sacrificed, tumors excised and the volume and mass of the tumors were measured. The tumor mass and the mean volume+SD are shown. Differences in tumor volume and mass were analyzed by an unpaired t-test: *p<0.001. (C) Tumours from two control mice, and three tigecycline-treated mice were excised after 5 days of treatment and total proteins were extracted and analyzed by western blotting for Cox-1, Cox-2, Cox-4, and tubulin. […] Following treatment, human leukemia cell engraftment in the injected right femur was measured by FACS analysis for human CD45^+CD19^−CD33^+ cells. […] Six weeks later, human leukemia cell engraftment in the injected right femur was measured by FACS analysis for human CD45^+CD19^−CD33^+cells. […]
To assess tigecycline in mouse models of primary AML, primary human AML cells were isolated form a fresh peripheral blood sample from a patient with AML. A frozen aliquot was thawed, counted and resuspended in PBS. […]

Data set [1] concerns normal hematopoietic cells from G-CSF mobilized normal donors. The experiment in a line: Mitochondrial membrane potential, JC-1, normal hematopoietic cells. The format is cell-based, human. Particulars: normal cells from two G-CSF mobilized donors. On the procedure: FIG. 4. Tigecycline decreases mitochondrial Cox-1 protein levels in TEX cells. (A) Cells from TEX, OCI-AML2 and two primary AML patients were treated with increasing concentrations (2.5 μM and 5 μM) of tigecycline for 36 and 48 hours of tigecycline. Total proteins were extracted and analyzed by western blotting for Cox-1, Cox-2, Cox-4, grp78, XIAP, actin and tubulin. (B) TEX and AML patient cells were treated with increasing concentrations (2.5 μM and 5 μM) of tigecycline. Cox-1, Cox-2, and Cox-4 mRNA expression relative 18S was determined by quantitative RT-PCR. Data is shown as mean±SD. […] Complex I, II and IV enzyme activity relative to citrate synthase activity was determined as described in materials and methods. […] Mitochondrial membrane potential (ΔΨ) was determined by staining cells with JC-1 dye, and flow cytometry analysis (Red/Green ratio). Reactive oxygen species generation (ROS) was determined by staining with h2-DCFDA and Dihydroethidium (DHE).
To measure mitochondrial membrane potential, cells were treated with tigecycline similarly as described above and then washed twice with PBS and incubated with 5 μM of 5,5′,6,6′-tetrachloro-1,1′,3,3′-tetraethyl benzimidazolylcarbocyanine iodide (JC-1, Sigma-Aldrich) for 20 minutes at 37° C. Each sample was then washed twice with 1 mL PBS and resuspended in 500 μL PBS prior to being read on a BD FACSCalibur. […]

For data set [2] the following is noted: intravenous doses of 300 mg; cited from earlier work.

Consider `CN(C)c1cc(NC(=O)CNC(C)(C)C)c(O)c2c1C[C@H]1C[C@H]3[C@H](N(C)C)C(O)=C(C(N)=O)C(=O)[C@@]3(O)C(O)=C1C2=O` [tigecycline], for which, in the data set on primary human AML cells (100 mg/kg i.p. daily for three weeks), the “engraftment of human AML primary cells (CD45+CD33+CD19-)” value was “significantly decreased”. In addition, the “toxicity in treated mice” value in the data set with primary human AML cells (mouse, in vivo) is given as “without gross organ toxicity or loss of body weight”. In data set [1], the “loss of mitochondrial membrane potential” value is reported as “not seen”. Besides, the tolerability entry in data set [2] is recorded as “well tolerated save for mild nausea”.
